The values below are quoted from earlier work in patent US8263645B2, “Disodium cromoglycate compositions and methods for administering same” (PARI Pharma GmbH, priority 2006, dated 2012).

The conditions of data set [1]: timed urine collections.
For data set [2], the system named is intermediate conductance chloride channels. Particulars: channels activated following immunological stimulation.

Like-named read-outs stand apart in the source and are kept apart here.

Turning to `O=C([O-])c1cc(=O)c2c(OCC(O)COc3cccc4oc(C(=O)[O-])cc(=O)c34)cccc2o1.[Na+].[Na+]` [DSCG, disodium cromoglycate], the values for the lung deposition in data set [1] (20 mg DSCG via Acron nebulizer (MMD=4.5 μm)) and in data set [1] (20 mg DSCG via pMDI) were 1.5% and 0.3%, respectively. Moreover, the histamine release result with rat mast cells (following antigen challenge) is listed as “inhibition of histamine release”. Besides, the “influx of calcium ions” value with rat mast cells (rat mast cells) is recorded as “inhibited the influx of calcium ions”. Further, the chloride channel block entry in data set [2] is “block intermediate conductance chloride channels”.
